Data on 32 compounds can be found in patent US20260151375A1, “CDK2 INHIBITORS AND METHODS OF USING THE SAME” (Cedilla Therapeutics, Inc., priority 2022, published 2026).

One assay addresses T1, CDK2/Cyclin E1 (Homo sapiens, UniProt P24941).
T1 construct: purchased 14-475
Put plainly: Caliper Assay (LabChip EZ Reader mobility shift assay), inhibition of CDK2/Cyclin E1 activity. To be noted: 2.5 nM CDK2/Cyclin E1(14-475), 100 μM ATP, 30 min preincubation; read-out: Caliper Assay (CDK2/CCNE1): IC50. In kind it is biochemical. In a few lines:
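Compounds were preincubated 30 min with CDK2/Cyclin E1(14-475), then run for 100 min with 2.5 nM enzyme, 100 μM ATP and 1.5 μM 5-FAM-QSPKKG peptide in HEPES pH 7.5 (final). Reactions were EDTA-stopped and substrate-to-product conversion read by mobility shift. IC50 came from a four-parameter fit.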

The next assay concerns Kuramochi cells. Put plainly: IncuCyte Kuramochi Assay (cell proliferation). It is filed as cell-based. The conditions noted are these: 72 h, Kuramochi cells labeled with mApple-H2B, cell count, read-out: IncuCyte - Kuramochi RB-WT: IC50. The method, boiled down:
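Cells imaged at 0 and 72 h after compound treatment (10 points, ½ log dilution, 20 μM top), with fluorescent nuclei counted. Fold change in count was normalized to DMSO wells and fitted to dose-response curves to give GI50.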

Consider `CC1(C)C[C@@H]1C(=O)N1CC2(CN(C(=O)c3cnn(Cc4ccccc4)c3)CC2c2ccc(NCc3ccccc3)cc2)C1` (stereo partly drawn) [I-93, (1-benzyl-1H-pyrazol-4-yl)(8-(4-(benzylamino)phenyl)-2-((S)-2,2-dimethylcyclopropane-1-carbonyl)-2,6-diazaspiro[3.4]octan-6-yl)methanone], for which the IC50 on CDK2/Cyclin E1 lay in the range of 1 to 10 µM; in the assay on Kuramochi cells, 5 to 10 µM.

Turning to `CC(c1nnc(C2CN(C(=O)c3cncs3)CC23CN(C(=O)[C@H]2CC2(C)C)C3)o1)n1ccc(C2CCCC2)n1` (stereo partly shown) [I-96], the IC50 on CDK2/Cyclin E1 was 0.01 to 0.1 µM; in the assay with Kuramochi cells it was over 10 µM.

Take `CC1(C)C[C@@H]1C(=O)N1CC2(CN(C(=O)c3cncs3)CC2c2nnc(C3(c4cccc(C5CCOCC5)n4)COC3)o2)C1` (stereo partly shown) [I-97]: the IC50 on CDK2/Cyclin E1 is 0.1 to 1 µM; with Kuramochi cells, over 10 µM.

In the case of `CC1(C)C[C@@H]1C(=O)N1CC2(C1)CN(c1cccc3ncsc13)CC2c1nnc(C(F)(F)c2ccc(Cl)c(Cl)c2)o1` (stereo partly drawn) [I-98, (6-(benzo[d]thiazol-7-yl)-8-(5-((3,4-dichlorophenyl)difluoromethyl)-1,3,4-oxadiazol-2-yl)-2,6-diazaspiro[3.4]octan-2-yl)((S)-2,2-dimethylcyclopropyl)methanone], the IC50 on CDK2/Cyclin E1 and in the assay with Kuramochi cells was over 10 µM in each case.

For `O=C(c1cncs1)N1CC(c2nnc(Cc3ccc(Cl)c(Cl)c3)o2)C2(C1)CN(c1nccc(C(F)(F)F)n1)C2` (stereo not shown) [I-99], the IC50 at CDK2/Cyclin E1 and in the assay with Kuramochi cells was over 10 µM in each case.

For `CC(c1coc(C2CCCC2)n1)c1nc(C2CN(C(=O)c3cncs3)CC23CN(C(=O)[C@H]2CC2(C)C)C3)no1` (stereo partly shown) [I-100], the IC50 on CDK2/Cyclin E1 fell in the range of 0.1 to 1 µM; in the assay with Kuramochi cells, 5 to 10 µM.

For `CC1(C)C[C@@H]1C(=O)N1CC2(C1)CN(c1cccc3ncsc13)CC2c1nnc(Cc2ccc(Cl)c(Cl)c2)o1` (stereo partly drawn) [I-101, (6-(benzo[d]thiazol-7-yl)-8-(5-(3,4-dichlorobenzyl)-1,3,4-oxadiazol-2-yl)-2,6-diazaspiro[3.4]octan-2-yl)((S)-2,2-dimethylcyclopropyl)methanone], the IC50 at CDK2/Cyclin E1 and with Kuramochi cells was over 10 µM each time.

As for `CC(C)(c1cccc(C2CCOCC2)n1)c1nnc(C2CN(C(=O)c3cncs3)CC23CN(C(=O)[C@H]2CC2(C)C)C3)o1` (stereo partly shown) [I-102], the IC50 is 0.01 to 0.1 µM on CDK2/Cyclin E1 and over 10 µM in the assay on Kuramochi cells.

As for `Cc1nc(C)c(C(=O)N2CC(c3nnc(C(F)(F)c4ccc(Cl)c(Cl)c4)o3)C3(C2)CN(C(=O)[C@H]2CC2(F)F)C3)s1` (stereo partly drawn) [I-103, (8-(5-((3,4-dichlorophenyl)difluoromethyl)-1,3,4-oxadiazol-2-yl)-2-((R)-2,2-difluorocyclopropane-1-carbonyl)-2,6-diazaspiro[3.4]octan-6-yl)(2,4-dimethylthiazol-5-yl)methanone], the IC50 on CDK2/Cyclin E1 and in the assay with Kuramochi cells was over 10 µM in each case.

For `Cc1nc(C)c(C(=O)N2CC(c3nnc(C(C)c4cccc(C5(C(F)(F)F)CC5)n4)o3)C3(C2)CN(C(=O)[C@H]2CC2(C)C)C3)s1` (stereo partly shown) [I-104], the results for the IC50 at CDK2/Cyclin E1 and with Kuramochi cells were 0.1 to 1 µM and over 10 µM, respectively.

As to `CC1(C)C[C@@H]1C(=O)N1CC2(C1)CN(c1ncnc3ncsc13)CC2c1nnc(Cc2cccc(C3CCOCC3)n2)o1` (stereo partly drawn) [I-105, ((S)-2,2-dimethylcyclopropyl)(8-(5-((6-(tetrahydro-2H-pyran-4-yl)pyridin-2-yl)methyl)-1,3,4-oxadiazol-2-yl)-6-(thiazolo[4,5-d]pyrimidin-7-yl)-2,6-diazaspiro[3.4]octan-2-yl)methanone], the IC50 on CDK2/Cyclin E1 and with Kuramochi cells was over 10 µM each time.

On to `O=C(c1cncs1)N1CC(c2nc3ccc(Oc4ccccc4)cc3o2)C2(C1)CN(C(=O)[C@H]1CC1(F)F)C2` (stereo partly drawn) [I-144, (2-((R)-2,2-difluorocyclopropane-1-carbonyl)-8-(6-phenoxybenzo[d]oxazol-2-yl)-2,6-diazaspiro[3.4]octan-6-yl)(thiazol-5-yl)methanone], for which the IC50 on CDK2/Cyclin E1 was 1 to 10 µM; with Kuramochi cells, over 10 µM.

On to `O=C(c1cncs1)N1CC(c2nc3cc(Oc4ccccc4)ccc3o2)C2(C1)CN(C(=O)[C@H]1CC1(F)F)C2` (stereo partly drawn) [I-145, (2-((R)-2,2-difluorocyclopropane-1-carbonyl)-8-(5-phenoxybenzo[d]oxazol-2-yl)-2,6-diazaspiro[3.4]octan-6-yl)(thiazol-5-yl)methanone], for which the IC50 at CDK2/Cyclin E1 and in the assay with Kuramochi cells was over 10 µM throughout.

As to `CC(C)(C#N)C(=O)N1CC2(CN(Cc3cnccn3)CC2c2nnc(C(F)(F)c3ccc(Cl)c(Cl)c3)o2)C1` (stereo not shown) [I-146], the results for the IC50 at CDK2/Cyclin E1 and in the assay on Kuramochi cells were over 100 µM and over 10 µM, respectively.

For `O=C(C1CNC1)N1CC(c2nnc(C(F)(F)c3ccc(Cl)c(Cl)c3)o2)C2(C1)CN(C(=O)[C@H]1CC1(F)F)C2` (stereo partly shown) [I-147], the figures for the IC50 at CDK2/Cyclin E1 and in the assay with Kuramochi cells were over 100 µM and over 10 µM, respectively.

Regarding `O=C([C@H]1CC1(F)F)N1CC2(C1)CN(C(=O)N1CCOCC1)CC2c1nnc(C(F)(F)c2ccc(Cl)c(Cl)c2)o1` (stereo partly drawn) [I-148, (8-(5-((3,4-dichlorophenyl)difluoromethyl)-1,3,4-oxadiazol-2-yl)-2-((R)-2,2-difluorocyclopropane-1-carbonyl)-2,6-diazaspiro[3.4]octan-6-yl)(morpholino)methanone], the IC50 on CDK2/Cyclin E1 and in the assay with Kuramochi cells was over 10 µM in each case.

In the case of `O=C(c1nncs1)N1CC(c2nnc(C(F)(F)c3ccc(Cl)c(Cl)c3)o2)C2(C1)CN(C(=O)[C@H]1CC1(F)F)C2` (stereo partly shown) [I-149], the IC50 at CDK2/Cyclin E1 and with Kuramochi cells was over 10 µM in each case.

Regarding `O=C(C1CCNCC1)N1CC(c2nnc(C(F)(F)c3ccc(Cl)c(Cl)c3)o2)C2(C1)CN(C(=O)[C@H]1CC1(F)F)C2` (stereo partly drawn) [I-150, (8-(5-((3,4-dichlorophenyl)difluoromethyl)-1,3,4-oxadiazol-2-yl)-2-((R)-2,2-difluorocyclopropane-1-carbonyl)-2,6-diazaspiro[3.4]octan-6-yl)(piperidin-4-yl)methanone], the IC50 on CDK2/Cyclin E1 and in the assay with Kuramochi cells was over 10 µM throughout.

As for `O=C(c1noc2cc(Cl)ccc12)N1CC(c2nnc(C(F)(F)c3ccc(Cl)c(Cl)c3)o2)C2(C1)CN(C(=O)[C@H]1CC1(F)F)C2` (stereo partly shown) [I-152], the IC50 at CDK2/Cyclin E1 and in the assay on Kuramochi cells was over 10 µM throughout.

As to `O=C(C1COC1)N1CC(c2nnc(C(F)(F)c3ccc(Cl)c(Cl)c3)o2)C2(C1)CN(C(=O)[C@H]1CC1(F)F)C2` (stereo partly shown) [I-153], the IC50 on CDK2/Cyclin E1 and in the assay on Kuramochi cells was over 10 µM in each case.

For the compound `O=C(c1cncs1)N1CC(c2nnc(C(F)(F)c3ccc(Cl)c(Cl)c3)o2)C2(C1)CN(C1CCOC1)C2` (stereo not shown) [I-154, (8-(5-((3,4-dichlorophenyl)difluoromethyl)-1,3,4-oxadiazol-2-yl)-2-(tetrahydrofuran-3-yl)-2,6-diazaspiro[3.4]octan-6-yl)(thiazol-5-yl)methanone], the IC50 at CDK2/Cyclin E1 and in the assay with Kuramochi cells was over 10 µM in each case.

On to `O=C(c1ccn[nH]1)N1CC(c2nnc(C(F)(F)c3ccc(Cl)c(Cl)c3)o2)C2(C1)CN(C(=O)[C@H]1CC1(F)F)C2` (stereo partly shown) [I-155], for which the IC50 on CDK2/Cyclin E1 and in the assay on Kuramochi cells was over 10 µM throughout.

Take `O=C(c1noc2ccccc12)N1CC(c2nnc(C(F)(F)c3ccc(Cl)c(Cl)c3)o2)C2(C1)CN(C(=O)[C@H]1CC1(F)F)C2` (stereo partly drawn) [I-156, benzo[d]isoxazol-3-yl(8-(5-((3,4-dichlorophenyl)difluoromethyl)-1,3,4-oxadiazol-2-yl)-2-((R)-2,2-difluorocyclopropane-1-carbonyl)-2,6-diazaspiro[3.4]octan-6-yl)methanone]: the IC50 at CDK2/Cyclin E1 and in the assay on Kuramochi cells was over 10 µM each time.

In the case of `O=C(c1cncs1)N1CC(c2nnc(C(F)(F)c3ccc(Cl)c(Cl)c3)o2)C2(C1)CN(C(=O)[C@H]1CCCO1)C2` (stereo partly shown) [I-157], the IC50 was 1 to 10 µM on CDK2/Cyclin E1 and over 10 µM in the assay on Kuramochi cells.

Take `O=C(C1CCOCC1)N1CC(c2nnc(C(F)(F)c3ccc(Cl)c(Cl)c3)o2)C2(C1)CN(C(=O)[C@H]1CC1(F)F)C2` (stereo partly shown) [I-158]: the IC50 at CDK2/Cyclin E1 and in the assay on Kuramochi cells was over 10 µM each time.

For the compound `CC(C)(C#N)C(=O)N1CC2(CN(Cc3cncs3)CC2c2nnc(C(F)(F)c3ccc(Cl)c(Cl)c3)o2)C1` (stereo not shown) [I-159, 3-(8-(5-((3,4-dichlorophenyl)difluoromethyl)-1,3,4-oxadiazol-2-yl)-6-(thiazol-5-ylmethyl)-2,6-diazaspiro[3.4]octan-2-yl)-2,2-dimethyl-3-oxopropanenitrile], the IC50 on CDK2/Cyclin E1 and in the assay with Kuramochi cells was over 10 µM in each case.

`O=C(C#CCO)N1CC(c2nnc(C(F)(F)c3ccc(Cl)c(Cl)c3)o2)C2(C1)CN(C(=O)[C@H]1CC1(F)F)C2` (stereo partly shown) [I-160]: the IC50 at CDK2/Cyclin E1 and in the assay with Kuramochi cells was over 10 µM in each case.

`O=C(c1cc(C(F)(F)F)n[nH]1)N1CC(c2nnc(C(F)(F)c3ccc(Cl)c(Cl)c3)o2)C2(C1)CN(C(=O)[C@H]1CC1(F)F)C2` (stereo partly shown) [I-161]: the IC50 at CDK2/Cyclin E1 was over 10 µM; with Kuramochi cells, 5 to 10 µM.

`O=C(c1[nH]ncc1F)N1CC(c2nnc(C(F)(F)c3ccc(Cl)c(Cl)c3)o2)C2(C1)CN(C(=O)[C@H]1CC1(F)F)C2` (stereo partly shown) [I-162]: the IC50 on CDK2/Cyclin E1 and in the assay with Kuramochi cells was over 10 µM each time.

With `O=C(c1[nH]ncc1C(F)(F)F)N1CC(c2nnc(C(F)(F)c3ccc(Cl)c(Cl)c3)o2)C2(C1)CN(C(=O)[C@H]1CC1(F)F)C2` (stereo partly shown) [I-163], the IC50 on CDK2/Cyclin E1 and with Kuramochi cells was over 10 µM in each case.

Take `O=C(c1cncs1)N1CC(c2nnc(C(F)(F)c3ccc(Cl)c(Cl)c3)o2)C2(C1)CN(C(=O)[C@@H]1CCCO1)C2` (stereo partly shown) [I-164]: the IC50 at CDK2/Cyclin E1 and in the assay with Kuramochi cells was over 10 µM each time.

For `O=C(c1cnc2ccccc2n1)N1CC(c2nnc(C(F)(F)c3ccc(Cl)c(Cl)c3)o2)C2(C1)CN(C(=O)[C@H]1CC1(F)F)C2` (stereo partly shown) [I-165], the figures for the IC50 at CDK2/Cyclin E1 and in the assay with Kuramochi cells were 1 to 10 µM and over 10 µM, respectively.
